Read-outs that look alike come from different tables or passages of the source. One block for each molecule: values may come before it.
Assays:
PAMPA‐BBB = type: in vitro ADME
Description: (§1) The lipid mixture that impregnates the filter has a different constitution for the permeability tests for the BBB (brain lipid from pig extract in n‐dodecane) and the GIT (L‐α soy phosphatidylcholine in n‐dodecane). The optical density values obtained in the reading at each selected wavelength, for each of the compounds, were analyzed in comparison with the values of several controls within a calibration curve (≥ 7 drugs). In the case of the BBB, these values were used to elaborate an equation and determine the permeability coefficient (Pe), while GIT used absorbed fraction (Fa%).

PC‐9 (EGFRL858R) [1] = test: Apoptosis by flow cytometry (Muse Annexin V & Dead Cell Kit); type: cell-based, human; details: PC‐9, 72 h; for phosphatidylserine externalization and cell membrane permeabilization, share of the NSCLC cell population: LASSBio‐1974 10 µM, CA‐4 0.1 µM
Description: (§2) PC‐9 (EGFRL858R) cell line was seeded at 1 × 10^5 cells/well in a 24‐well plate. […] All flow cytometry assays were performed using Guava Muse Cell Analyzer (Cytek Biosciences) following each kit user's guide provided by the manufacturer. Muse Cell Cycle Kit (catalog no. MCH100106) was chosen to evaluate cell cycle arresting. Apoptosis features were evaluated using Muse Annexin V & Dead Cell Kit (catalog no. MCH100105), as well as inactivation of EGFR using Muse EGFR‐RTK Activation Dual Detection Kit (catalog no. MCH200102). Statistical analysis was performed using one‐way ANOVA on data collected in duplicate from at least two independent experiments (n ≥ 2), employing GraphPad Prism software (version 8.0).

[2] = test system: NCI‐H1975 (EGFRL858R/T790M); test: Cell viability by MTT assay, NCI-H1975; details: Homo sapiens; for IC50: read-out: cytotoxic activity, NCI-H1975 (EGFRL858R/T790M); for CC50: NCI-H1975, 72 h, read-out: cytotoxic activity CC50, NCI‐H1975 (EGFRL858R/T790M)
Description: (§3) All cell lines were harvested at 37°C and 5% CO2 atmosphere humid incubator.
(§4) Cells were plated at 1 × 10^4 to 3 × 10^4 cells/well and seeded in a 96‐well plate. After 16–24 h of cell acclimatization, compounds were added at 0.003–100 µM concentrations (1% DMSO vehicle). After 72 h, treatment was interrupted to measure cell viability using MTT (3‐(4,5‐dimethylthiazol‐2‐yl)‐2,5‐diphenyltetrazolium bromide) (50 µg/mL) [62]. Formazan formed by viable cells was solubilized after 4 h incubation with SDS/HCl solution (0.1 g/mL) and read at 570 nm in spectrophotometer.

PAMPA‐GIT = type: in vitro ADME
Description: as §1

NCI‐H292 (EGFRwt) [3] = test: Cell viability by sulforhodamine B (SRB) assay, NCI-H292; details: Homo sapiens, NCI-H292, 72 h, read-out: cytotoxic activity CC50, NCI‐H292 (EGFRwt)
Description: as §3
(§5) Cells were plated at 1 × 10^4 to 3 × 10^4 cells/well and seeded in a 96‐well plate. After 16–24 h of cell acclimatization, compounds were added at 0.003–100 µM concentrations (1% DMSO as vehicle). The experimental procedure was handled as described by Vichai and Kirtikara [63]. After incubation, cells were fixed with trichloroacetic acid (TCA) (10% m/v) for 1 h at 4°C. SRB (0.004% w/v in acetic acid 1%) was added for 30 min and washed with acetic acid 1%.

[4] = Microsomal metabolic stability; type: in vitro ADME, rat; details: for Metabolism rate: RLM 1 mg/mL, 10 μM, 60 min; for half-life at 10 µM / microsomal CLint at 10 µM: rat, rat liver microsomes
Description: The metabolic stability of compounds LASSBio‐1971 (1) and LASSBio‐1974 (2) (10 μM) was incubated in 1 mg/mL of rat microsomes in the presence and absence of the cofactor (i.e., NADPH‐generating system) at the same concentrations as in the previous section. After mixing and incubating at 37°C in a shaking water bath for 1 h, 500 µL cold acetonitrile containing the internal standard was added to terminate the reaction at different time intervals (0, 15, 30, 45, and 60 min).

[5] = test system: NCI‐H1975 (EGFRL858R/T790M); test: Cell viability by sulforhodamine B (SRB) assay, NCI-H1975; type: cell-based; details: Homo sapiens, 72 h, read-out: cytotoxic activity CC50, NCI‐H1975 (EGFRL858R/T790M)
Description: as §3, §5

EGFR in PC‐9 (EGFRL858R) = test: EGFR activation by flow cytometry (Muse EGFR‐RTK Activation Dual Detection Kit); type: cell-based, human; details: PC‐9, at respective CC50, compared to vehicle (DMSO 1%)
Description: as §2

PC‐9 (EGFRL858R) [6] = test: Cell viability by MTT assay, PC-9; details: for IC50: read-out: cytotoxic activity, PC-9 (EGFRL858R)
Description: as §3, §4

EGFRL858R/T790M = test system: EGFRL858R/T790M; set-up: method as in PMID 30626888; details: in vitro enzymatic model; cited from earlier work
NCI‐H292 (EGFRwt) [7] = test: Cell viability by MTT assay, NCI-H292; details: for IC50: read-out: cytotoxic activity, NCI-H292 (EGFRw.t.)
Description: as §3, §4

EGFRL858R = test system: EGFRL858R; set-up: method as in PMID 30626888; details: in vitro enzymatic model; cited from earlier work
PC‐9 (EGFRL858R) [8] = test: Cell cycle by flow cytometry (Muse Cell Cycle Kit); type: cell-based, human; details: PC‐9, 24 h
Description: as §2

EGFRwt = test system: EGFRwt; set-up: method as in PMID 30626888; details: in vitro enzymatic model; cited from earlier work
PC‐9 (EGFRL858R) [9] = test: Cell viability by sulforhodamine B (SRB) assay, PC-9; details: Homo sapiens, 72 h, read-out: cytotoxic activity CC50, PC‐9 (EGFRL858R)
Description: as §3, §5

[10] = Conjugation with glutathione in rat liver microsomes; type: in vitro ADME; details: RLM 1 mg/mL, 10 μM, 2 mM GSH, 60 min, LC/MS/MS
Description: Incubation with pooled RLMs (1 mg/mL protein) was conducted in 50 mM potassium phosphate buffer (pH 7.4) at 37°C in an incubator for 60 min. LASSBio‐1971 (1) and P‐chlorophenyl isocyanate (10 μM) and 2 mM GSH were added to the buffer. The incubation was initiated by NADPH‐generating system consisting of 40 mM NADP^+, 350 mM glucose‐6‐phosphate, 5 units/mL glucose‐6‐phosphate dehydrogenase, and 130 mM MgCl2. The incubation was terminated at 60 min by the addition of 1 mL of ACN (with 6% of formic acid, with a total volume of 1.25 mL). The quenched sample was then centrifuged at 10,500 × g for 15 min, and 1 mL of the supernatant was collected to be injected into the Q‐Exactive Plus ESI MS System (Thermo Scientific, USA).

[11] = PAMPA-GIT, standard drugs used as control (n = 2)
[12] = PAMPA‐BBB, mean ± standard deviation (n = 3)
[13] = PAMPA‐BBB, mean ± standard deviation (n = 3), read-out: Pe. Exp. BBB
[14] = PAMPA‐GIT, mean ± standard deviation (n = 3), read-out: Pe. Exp. GIT
[15] = NADPH regenerator system: Absence
[16] = NADPH regenerator system: Presence
[17] = RLM, NADPH regenerator system: Absence
[18] = RLM, NADPH regenerator system: Presence
[19] = Homo sapiens, 72 h, read-out: cytotoxic activity CC50, PC‐9 (EGFRL858R)
[20] = Homo sapiens, NCI-H292, 72 h, read-out: cytotoxic activity CC50, NCI‐H292 (EGFRwt), MTT, 72 h

Compound: CCn1cc(C(=O)O)c(=O)c2cc(F)c(N3CCNCC3)nc21 [Enoxacin, reference compound]
Classification (PAMPA‐BBB; PAMPA-BBB, standard drugs used as control): CNS +
Papp (PAMPA‐BBB; PAMPA-BBB, standard drugs used as control (n = 2), read-out: Pe experimental): 5.6 nm/s

Compound: C#Cc1cccc(Nc2ncnc3cc(OCCOC)c(OCCOC)cc23)c1 [Erlotinib, erlotinib, reference compound]
increase in the population of cells undergoing apoptosis (PC‐9 (EGFRL858R) [1]; at their CC50): approximately 10%
IC50 ([2]; NCI-H1975, 48 h): > 100 µM

Compound: Nc1nc2c(ncn2COCCO)c(=O)[nH]1 [Acyclovir]
Fa exp. (PAMPA‐GIT; [11]): 1.70%

Compound: CNC(=C[N+](=O)[O-])NCCSCc1ccc(CN(C)C)o1 [Ranitidine]
Classification (PAMPA‐GIT; PAMPA-GIT, standard drugs used as control): Medium (medium permeability (30%–69%))
Fa exp. (PAMPA‐GIT; [11]): 38.29%
Papp (PAMPA‐GIT; PAMPA-GIT, standard drugs used as control (n = 2), read-out: Pe experimental): 3 nm/s

Compound: COc1ccc(/C=C\c2cc(OC)c(OC)c(OC)c2)cc1O [combretastatin A4, reference compound]
phosphatidylserine externalization and cell membrane permeabilization, share of the NSCLC cell population (PC‐9 (EGFRL858R) [1]): ~60%
CC50 (PC‐9 (EGFRL858R) [6]; read-out: CC50 stated in figure legend, PC‐9, CC50 given as concentration used in flow cytometry, assay and time not stated): 0.1 µM

Continued, in another order:

Classification BBB (PAMPA‐BBB; PAMPA‐BBB): CNS ±
Pe. Exp. BBB (PAMPA‐BBB; [12]): 2.37 10^−6 cm/s
Papp (PAMPA‐BBB; [13]): 23.7 ± 4.4 nm/s
Classification GIT (PAMPA‐GIT; PAMPA‐GIT): Low (low permeability (0%–29%))
Fa (absorbed fraction) (PAMPA‐GIT; PAMPA‐GIT): 26.78%
Papp (PAMPA‐GIT; [14]): 8.2 ± 4.7 nm/s
Metabolism rate [4, 15]: 10.78%
Metabolism rate [4, 16]: 83.11%
Elimination rate constant (k) [4, 17]: 0.0016
Elimination rate constant (k) [4, 18]: 0.1172
half-life at 10 µM [4, 17]: 433 min
microsomal CLint at 10 µM [4, 17]: 0.4 µL/min/mg
half-life at 10 µM [4, 18]: 5.91 min
microsomal CLint at 10 µM [4, 18]: 29.3 µL/min/mg
Compound: CN(C)C/C=C/C(=O)Nc1ccc2ncc(NC(=O)Nc3ccccc3)nc2c1 [LASSBio‐1974 (2)]
CC50 (NCI‐H292 (EGFRwt) [3]): 8.99 µM
phosphatidylserine externalization and cell membrane permeabilization, share of the NSCLC cell population (PC‐9 (EGFRL858R) [1]): ~90%
CC50 [5]: 20.5 µM
inhibition of phosphorylation and activation of EGFR (EGFR in PC‐9 (EGFRL858R)): inhibit phosphorylation
IC50 (PC‐9 (EGFRL858R) [6]; Homo sapiens, 24 h): 9.74 µM
IC50 (PC‐9 (EGFRL858R) [6]; Homo sapiens, 48 h): 1.22 µM
CC50 (PC‐9 (EGFRL858R) [6]; [19]): 1.1 µM
IC50 (EGFRL858R/T790M): 0.132 ± 0.049 µM
IC50 (NCI‐H292 (EGFRwt) [7]; Homo sapiens, NCI-H292, 24 h): 16.4 µM
IC50 (NCI‐H292 (EGFRwt) [7]; Homo sapiens, NCI-H292, 48 h): 7.25 µM
CC50 (NCI‐H292 (EGFRwt) [7]; [20]): 4.98 µM
IC50 (EGFRL858R): 0.032 ± 0.014 µM
IC50 ([2]; NCI-H1975, 24 h): 38 µM
IC50 ([2]; NCI-H1975, 48 h): 6.58 µM
CC50 [2]: 7.09 µM
cell cycle arrest phase (PC‐9 (EGFRL858R) [8]; 1 µM): cycle arresting in the G0/G1 phase
cell cycle arrest phase (PC‐9 (EGFRL858R) [8]; 10 µM): cell cycle arrest in G2/M phase
IC50 (EGFRwt): 0.101 ± 0.012 µM
CC50 (PC‐9 (EGFRL858R) [9]): 1.22 µM

Classification BBB (PAMPA‐BBB; PAMPA‐BBB): CNS +
Pe. Exp. BBB (PAMPA‐BBB; [12]): 4.16 10^−6 cm/s
Papp (PAMPA‐BBB; [13]): 41.6 ± 18.4 nm/s
Fa (absorbed fraction) (PAMPA‐GIT; PAMPA‐GIT): 94.62%
Papp (PAMPA‐GIT; [14]): 76.9 ± 7 nm/s
Metabolism rate [4, 15]: 21.99%
Metabolism rate [4, 16]: 53.93%
Elimination rate constant (k) [4, 17]: 0.0039
Elimination rate constant (k) [4, 18]: 0.0129
t 1/2 [4, 18]: 53.72 min
half-life at 10 µM [4, 17]: 178 min
microsomal CLint at 10 µM [4, 17]: 0.975 µL/min/mg
half-life at 10 µM [4, 18]: 53.7 min
microsomal CLint at 10 µM [4, 18]: 3.23 µL/min/mg
Compound: C=CC(=O)Nc1ccc2ncc(NC(=O)Nc3ccccc3)nc2c1 [LASSBio‐1971 (1)]
Classification GIT (PAMPA‐GIT; PAMPA‐GIT): High (high intestinal permeability (70%–100%))
CC50 (NCI‐H292 (EGFRwt) [3]): 4.95 µM
apoptosis phenotype induction (PC‐9 (EGFRL858R) [1]): could not induce an apoptosis phenotype
CC50 [5]: 18.5 µM
inhibition of phosphorylation and activation of EGFR (EGFR in PC‐9 (EGFRL858R)): inhibit phosphorylation
IC50 (PC‐9 (EGFRL858R) [6]; Homo sapiens, 24 h): 6.42 µM
IC50 (PC‐9 (EGFRL858R) [6]; Homo sapiens, 48 h): 0.14 µM
CC50 (PC‐9 (EGFRL858R) [6]; [19]): 0.13 µM
IC50 (EGFRL858R/T790M): 1.68 ± 1.51 µM
IC50 (NCI‐H292 (EGFRwt) [7]; Homo sapiens, NCI-H292, 24 h): 18.4 µM
IC50 (NCI‐H292 (EGFRwt) [7]; Homo sapiens, NCI-H292, 48 h): 8.85 µM
CC50 (NCI‐H292 (EGFRwt) [7]; [20]): 1.5 µM
CC50 (NCI‐H292 (EGFRwt) [7]; read-out: cytotoxic activity CC50, NCI‐H292 (EGFRwt), MTT, 72 h): 1.51 µM
covalent adduct formation with glutathione [10]: a covalent adduct between glutathione and LASSBio‐1971 (1) was formed
IC50 (EGFRL858R): 0.018 ± 0.003 µM
IC50 ([2]; NCI-H1975, 24 h): 51.3 µM
IC50 ([2]; NCI-H1975, 48 h): 6.45 µM
CC50 [2]: 5.1 µM
cell cycle arrest phase (PC‐9 (EGFRL858R) [8]; 1 µM): G0/G1 phase arrest
IC50 (EGFRwt): 0.025 ± 0.004 µM
CC50 (PC‐9 (EGFRL858R) [9]): 1.02 µM

Source: paper PMC12637173, “Investigation on LASSBio‐1971 and LASSBio‐1974 Cellular Cytotoxic Mechanism and Their Comparative DMPK Profile” (Archiv Der Pharmazie, 2025)
